Article PMC10046961, “High-Throughput Screening Assay for Detecting Drug-Induced Changes in Synchronized Neuronal Oscillations and Potential Seizure Risk Based on Ca^2+ Fluorescence Measurements in Human Induced Pluripotent Stem Cell (hiPSC)-Derived Neuronal 2D and 3D Cultures” (Cells, 2023)
Like-named read-outs stand apart in the source and are kept apart here. Marks after values point to notes of the source that are not given here.

Assays:
[1] = system: hiPSC-derived neurons co-cultured with human primary astrocytes in 2D; assay: Ca2+ transient oscillation assay (FDSS), 2D co-culture; type: cell-based; settings: for activation at 0.37 µM / activation at 1.11 µM / activation at 3.33 µM / activation at 10 µM: Homo sapiens, 1 h
Text: (§1) In this study, we used cryopreserved excitatory neurons that were differentiated from human induced pluripotent stem cells (hiPSCs; Cat #: EX-SeV-CW50065) (Elixirgen Scientific, Inc., Baltimore, MD, USA). The hiPSCs used, namely, CW50065 were derived from a healthy person and distributed by the California Institute of Regenerative Medicine Human Induced Pluripotent Stem Cell Repository. Human iPSC-derived excitatory neurons were differentiated from CW50065 using a proprietary cocktail of differentiation-inducing factors called Quick-Neuron™ EX-SeV (Batch number: EX-SeV-CW50065-L; Elixirgen Scientific, Inc.), cryopreserved 3 days after differentiation induction and distributed. Human iPSC-derived excitatory neurons were recovered from cryopreservation and maintained essentially as instructed by the manufacturer.
(§2) Cryopreserved human primary astrocytes (#N7805100, Thermo Fisher Scientific, Waltham, MA, USA) were recovered as instructed by the manufacturer and seeded in a 10 cm dish at the density of 2,000,000 cells. The culture was maintained using the Human Astrocytes Kit (#N7805200, Thermo Fisher Scientific) for 12 days. Half of the culture medium was replaced with fresh medium every 2–3 days during the culture period. These astrocytes were harvested using StemPro™ Accutase™ Cell Dissociation Reagent (#A1110501, Thermo Fisher Scientific) when they reached confluency. These cells were cryopreserved in STEM-CELLBANKER® GMP grade (ZENOGEN PHARMA, Kohriyama, Fukushima Japan) at the density of 2,000,000 cells per vial as working stocks for co-culture with neurons in 2D and 3D conditions described below. After a working stock was recovered, astrocytes were directly mixed with hiPSC-derived neurons for plating without further expansion.
Live neurons (hiPSC neurons) and human primary astrocytes were recovered from cryopreservation as described above and seeded in each well of 384-well plates at the density of 10,000 cells (HiPSC-cortical neurons) and human primary astrocytes at 2500 cells (ratio 4:1). These co-cultures were maintained under the medium conditions recommended by the manufacturer, namely Medium N(G2P), to complete the differentiation of excitatory neurons for the first week. […] Half of the culture medium was replaced with fresh medium every 3–4 days during the culture period.
After the incubation, the culture medium containing Cal-520 was replaced with 50 μL of HBSS supplemented with 0.1 mM MgCl2, 2 mM CaCl2, 10 mM HEPES, and 10 mM glucose and incubated at 37 ℃ for 15 min.
(§3) Prior to the fluorescence measurements, all wells to be measured were treated with 0.04% dimethyl sulfoxide (DMSO) to stabilize the oscillation signal. The first recording started 10 min after the addition of DMSO for each plate for 20 min. The effects of the test compound were recorded again starting 60 min after the administration of compounds, for 20 min.
Twenty-five compounds (Table 1) were first dissolved in either DMSO (most compounds) or distilled water depending on the compound, and further diluted with PBS to produce stock solutions concentrated 10-fold. […] The final concentration of DMSO was adjusted to 0.1%. Changes in the fluorescence intensity (FI) produced by Ca^2+ flux were measured at 37 °C for all wells of a 384-well plate simultaneously using the FDSS/µCell system (#C13299, Hamamatsu Photonics, Hamamatsu, Shizuoka, Japan). The excitation and the emission wavelengths were 470 nm and 540 nm, respectively. The recording duration was 20 min with a sampling frequency of 2 Hz for cells cultured under 2D conditions and 10 Hz for cells cultured under 3D conditions.

[2] = system: hiPSC-derived neurons co-cultured with human primary astrocytes in 3D; assay: Ca2+ transient oscillation assay (FDSS), 3D spheroids; type: cell-based; settings: for Area under the curve - 3D Mean / Peak Number—3D Mean / Peak width - 3D Mean / Peak-to-peak interval - 3D Mean: 60 min
Text: as §1, §2
We used U-shaped-bottom 96-well plates (#174925, Thermo Fisher Scientific) without any prior coating to make a spheroid in each well. Neurons and astrocytes were seeded and maintained as described for 2D cultures, except for the following modifications. First, neurons and astrocytes were seeded in each well of the 96-well plates at the density of 8000 hiPSC neurons with 8000 human primary astrocytes (8000)/well (ratio 1:1). Second, when the differentiation of excitatory neurons was completed one week after seeding, cells were fed with BrainPhys^TM Neuronal Medium (#05793, […] Technologies, Vancouver, BC, Canada) supplemented with 2% SM1 Neuronal Supplement, 1% N2 Supplement-A, and 10% Neuron culture medium for 5 weeks.
Cells maintained as spheroids (3D) in the U-shaped-bottom 96-well plates were transferred into 384-well spheroid plates (#4516, Merck, Corning, NY, USA) with 25 µL of the culture medium. A Ca^2+-indicating dye solution including […] was prepared using the EarlyTox™ Cardiotoxicity Kit (#R8211, Molecular Devices, LLC, San Jose, CA, USA) according to the manufacturer. Then, the same volume of the dye solution was dispensed into each well.
as §3
Twenty-five compounds (Table 1) were first dissolved in either DMSO (most compounds) or distilled water depending on the compound, and further diluted with PBS to produce stock solutions concentrated 10-fold. Then, 5 μL of each compound solution was injected into each well using an automatic pipetting robot (#4505, ASSIST PLUS pipetting robot, Integra Biosciences Corp., Hudson, NH, USA), so that the final concentration of each compound was 1-fold nominal in the well.

[3] = read-out: Area under the curve - 2D Mean
[4] = read-out: Peak amplitude - 2D Mean
[5] = read-out: Peak-to-peak interval - 2D Mean
[6] = symbol, based on % changes of baseline value in the peak number, concentration in parentheses in same cell

SMILES | activation at 0.37 µM [1, 3] | activation at 1.11 µM [1, 3] | activation at 3.33 µM [1, 3] | activation at 10 µM [1, 3] | activation at 0.37 µM ([1]; read-out: Peak Number—2D Mean) | activation at 1.11 µM ([1]; read-out: Peak Number—2D Mean) | activation at 3.33 µM ([1]; read-out: Peak Number—2D Mean) | activation at 10 µM ([1]; read-out: Peak Number—2D Mean) | activation at 0.37 µM [1, 4] | activation at 1.11 µM [1, 4] | activation at 3.33 µM [1, 4] | activation at 10 µM [1, 4] | activation at 0.37 µM ([1]; read-out: Peak width - 2D Mean) | activation at 1.11 µM ([1]; read-out: Peak width - 2D Mean) | activation at 3.33 µM ([1]; read-out: Peak width - 2D Mean) | activation at 10 µM ([1]; read-out: Peak width - 2D Mean) | activation at 0.37 µM [1, 5] | activation at 1.11 µM [1, 5] | activation at 3.33 µM [1, 5] | activation at 10 µM [1, 5] | further results
CN1CCc2cc3c(cc2[C@H]1[C@@H]1OC(=O)c2c1ccc1c2OCO1)OCO3 [Bicuculline] | 15.8% | 39.6% | 1.6% | 22.8% | -29.4% | -3.5% | 9.9% | 5.8% | -4.1% | 9.3% | -14.1% | 9.8% | 16.1% | 33% | 3.7% | 11.5% | -17.2% | 8.2% | -26.1% | -13.2% | effect on peak number / Ca2+ neuronal oscillations, in words ([1]; 2D format): significantly reduced peak number; Ca²⁺ Transient Peak Number (2D) [1, 6]: ±; Area under the curve - 3D Mean ([2]; 0.37 µM): 105.2 % change from baseline; Peak Number—3D Mean ([2]; 0.37 µM): −14.9 % change from baseline; Peak width - 3D Mean ([2]; 0.37 µM): −0.3 % change from baseline; Peak-to-peak interval - 3D Mean ([2]; 0.37 µM): 7.6 % change from baseline; Area under the curve - 3D Mean ([2]; 1.11 µM): 108.3 % change from baseline; Peak Number—3D Mean ([2]; 1.11 µM): −13.0 % change from baseline; Peak width - 3D Mean ([2]; 1.11 µM): 5.7 % change from baseline; Peak-to-peak interval - 3D Mean ([2]; 1.11 µM): 20.3 % change from baseline; Area under the curve - 3D Mean ([2]; 3.33 µM): 107.4 % change from baseline; Peak Number—3D Mean ([2]; 3.33 µM): 5.8 % change from baseline; Peak width - 3D Mean ([2]; 3.33 µM): 2.7 % change from baseline; Peak-to-peak interval - 3D Mean ([2]; 3.33 µM): 12.1 % change from baseline; Area under the curve - 3D Mean ([2]; 10 µM): 115.2 % change from baseline; Peak Number—3D Mean ([2]; 10 µM): −5.8 % change from baseline; Peak width - 3D Mean ([2]; 10 µM): 8.5 % change from baseline; Peak-to-peak interval - 3D Mean ([2]; 10 µM): 9.4 % change from baseline; effect on peak number of oscillations, in words ([2]; 3D-cultured): did not significantly change the peak number; Ca²⁺ Transient Peak Number (3D) [2, 6]: ±
C=C(C)[C@H]1CN[C@H](C(=O)O)[C@H]1CC(=O)O [Kainic Acid] | 32.3% | 25.2% | -48.2% | -100% | 21% | 26.8% | -53.3% | -100% | 11.8% | -2.2% | -55% | -100% | 22% | 37.4% | -23% | -100% | -1.2% | -19.6% | -53% | -100% | response of positive controls on Ca2+ transient oscillations ([1]; 2D, 4-AP 30 µM, kainic acid 100 µM): significant responses; change of Ca2+ neuronal oscillations (Figure 1) ([1]; 4-AP at 30 µM, kainic acid at 10 µM): inhibition; Area under the curve - 3D Mean ([2]; 0.37 µM): 120.5 % change from baseline; Peak Number—3D Mean ([2]; 0.37 µM): 1.3 % change from baseline; Peak width - 3D Mean ([2]; 0.37 µM): 4.9 % change from baseline; Peak-to-peak interval - 3D Mean ([2]; 0.37 µM): 0.2 % change from baseline; Area under the curve - 3D Mean ([2]; 1.11 µM): 141.9 % change from baseline; Peak Number—3D Mean ([2]; 1.11 µM): 16.4 % change from baseline; Peak width - 3D Mean ([2]; 1.11 µM): 10.6 % change from baseline; Peak-to-peak interval - 3D Mean ([2]; 1.11 µM): −16.0 % change from baseline; Area under the curve - 3D Mean ([2]; 3.33 µM): 174.3 % change from baseline; Peak Number—3D Mean ([2]; 3.33 µM): 18.7 * % change from baseline; Peak width - 3D Mean ([2]; 3.33 µM): 41.9 % change from baseline; Peak-to-peak interval - 3D Mean ([2]; 3.33 µM): −13.0 % change from baseline; Area under the curve - 3D Mean ([2]; 10 µM): 58.3 % change from baseline; Peak Number—3D Mean ([2]; 10 µM): 102.8 ** % change from baseline; Peak width - 3D Mean ([2]; 10 µM): −20.1 % change from baseline; Peak-to-peak interval - 3D Mean ([2]; 10 µM): −45.2 % change from baseline; response of positive controls on Ca2+ transient oscillations ([2]; 3D, 4-AP 30 µM, kainic acid 100 µM): significant responses
